Measured values: ChEMBL document CHEMBL1151245, “Structures and histamine release inhibitory effects of prenylated orcinol derivatives from Rhododendron dauricum” (J Nat Prod, 2004)

system: Mast cell; assay: Inhibition of compound 48/80-induced histamine release in Wistar rat peritoneal mast cells; format: functional, cell-based

SMILES	IC50
CC(C)=CCC/C(C)=C/CC[C@]1(C)C=Cc2c(O)cc(C)cc2O1 [CONFLUENTIN]	205 µM
C=C(CCC=C(C)C)C(O)CC[C@]1(C)C=Cc2c(O)cc(C)cc2O1 (stereo partly drawn) [DAURICHROMENE B]	4.4 µM
C/C(=C\CC[C@]1(C)C=Cc2c(O)cc(C)cc2O1)C/C=C\C(C)(C)O [DAURICHROMENE C]	87.4 µM
C=C(C)C(O)CC/C(C)=C/CC[C@]1(C)C=Cc2c(O)cc(C)cc2O1 (stereo partly drawn) [DAURICHROMENE A]	1.6 µM

Continued, values first:

IC50	SMILES
250 µM	COc1ccc2c(c1)c(CC(=O)O)c(C)n2C(=O)c1ccc(Cl)cc1 [INDOMETHACIN]
1.3 µM	C/C(=C\CC/C(C)=C/CC[C@]1(C)C=Cc2c(O)cc(C)cc2O1)CO [DAURICHROMENE D]
81.6 µM	CC(C)=CCC/C(C)=C/CC/C(C)=C/Cc1c(O)cc(C)cc1O [GRIFOLIN]
Not Active	Cc1cc(O)cc(O)c1 [ORCINOL]
